The subject of one data set is PDX RomeP_PHCH_X_0008a. The experiment in a line: Murine PDX model of cholangiocarcinoma, Round 1 (AGX-A in DMSO). The class given is in vivo, mouse. The protocol:
A first round of the study (“Round 1”) was planned as indicated in the Round 1 Study Protocol blow, utilizing gemcitabine in saline and AGX-A in DMSO for administration. • Mice: NSG females, 6-8 weeks old • […], serially transplanted sc with matrigel • Treatment Groups (at least 6 animals/group): treatments started when tumors reached 100 mm^3 (“Day 0” for each animal) • Group 1. Saline, i.p. once a week (“QW”) for 3-4 weeks (“×3-4 weeks”) • Group 2. Gemcitabine 25 mg/kg i.p. QW×3-4 weeks • Group 3. AGX-A 10 mg/kg i.p. once a day for 5 consecutive days (“QD×5”)×3-4 weeks • Group 4. Gemcitabine 25 mg/kg […] 10 mg/kg i.p. QD×5×3-4 weeks Tumor volumes, weights, and clinical signs were monitored a minimum of twice per week for each animal in each group throughout the study. In the Round 1 study, it was observed that animal weight in Groups 1 and 2 was essentially unchanged for the duration of the study. […] Because of this, treatment in Groups 3 and 4 was halted after Day 9 while tumor volumes, weights, and clinical signs continued to be monitored a minimum of twice per week for each subject in each group. Subsequently, the animals in Groups 3 and 4 stopped loosing weight and instead started regaining weight. Meanwhile, treatment in Groups 1 and 2 continued as planned. Due to the alterations in the planned study, Round 1 was concluded at Day 20.

The next data set concerns the target E47 (Homo sapiens, UniProt P15923). The experiment in a line: Circular dichroism (CD) of E47. Type of data set: binding. The conditions noted are these: 0, 10, 20 and 50 μM. As to the method: Circular dichroism. Far UV Circular dichroism (CD) measurements were done on a Jasco J-1500 spectropolarimeter at room temperature using a 0.1 cm cell and a 0.1 mg/mL protein solution in the absence of presence of AGX51, AGX51E1, AGX51E2 or AGX-A. Due to the presence of DMSO in the samples, the lowest wavelength to be scanned is limited.
In general terms: Circular dichroism is the unequal absorption of left and right circularly polarised light.

Another data set concerns ID1 mRNA. The experiment in a line: qRT-PCR for ID1 in HCT116 cells. Type of data set: cell-based. The conditions noted are these: 40 μM, 24 hours. As to the method:
qRT-PCR. RNA was extracted using the RNeasy kit (Qiagen, Valencia, Calif., USA) and cDNA was generated from 1 μg of RNA using SuperScript IV First-Strand Synthesis System (Invitrogen, Grand Island, N.Y., USA). Quantitative PCR was performed using SYBR Green QuantiTect Primer Assay (Qiagen) according to manufacturer's instructions in a 7900HT Fast-Real Time PCR System Instrument (Applied Biosystems, Grand Island, N.Y., USA). Primer pairs for the individual genes were obtained from the bioinformatically validated QuantiTect Library and are as follows: ID1 (QT00230650), ID3 (QT01673336), and GAPDH (QT01192646). The fold changes in gene expression were calculated using the delta-delta CT method.

A further data set deals with HUVEC. The experiment in a line: HUVEC growth, cell cycle and Cyclin D1. Type of data set: cell-based, human. As to the method:
Immunoblotting. For immunoblotting, cells were collected by trypsinization, washed with PBS and lysed in homogenization buffer (0.3 M sucrose, 10 mM Tris (pH 8.0), 400 mM sodium chloride, 3 mM magnesium chloride, 0.5% NP40/IGEPAL, 100 μg/mL Aprotinin+Protease inhibitor cocktail (Roche #11 836 153 001). Proteins were separated by SDS-PAGE, transferred to a membrane (LI-COR), probed with primary antibodies overnight at 4° C., and probed with secondary antibodies (LI-COR) for 1-2 hours at room temperature. Proteins were visualized using the LI-COR Odyssey Infrared Imaging detection system. The following primary antibodies were used Id1, Id2, Id3, Id4 (195-14, 9-2-8, 17-3, 82-12, respectively, all from Biocheck), Cyclin D1 (2978, Cell Signaling), Actin (A2066, Sigma), Tubulin (T4026, Sigma). Western blot quantification was carried out using channel 700 and channel 800 intensity data from Odyssey application software version 3.0.30 (LI-COR), subtracting blank values and normalizing to Tubulin.
Cell viability assays. Cell lines were seeded in a 96 well plate (5000 cells per well). After overnight incubation, cells were treated with AGX51 and incubated for 24 hours then MTT reagent (5 mg/mL) was added per well and the cells were incubated for four hours. Following incubation, media was aspirated and 200 μL DMSO was added per well. Absorbance was then measured at 570 nm using a plate reader (Synergy 2, BioTek). Cell growth profiles were determined by seeding 38,000 cells in a 24-well plate, in triplicate for each time point, and counting the cells on days 1, 3 and 5 after seeding, using trypan blue exclusion of dead cells.
Cell cycle analysis. […] For cell cycle analysis cells were centrifuged 1000 rpm for 5 minutes, washed with 1×PBS and then resuspended in 0.5 mL PI/RNase staining buffer (550825, BD Biosciences), incubated for 15 minutes at room temperature and analyzed by flow cytometry (LSR II).

SMILES strings stand for the structures.

Data on 2 compounds can be found in patent publication US20220356163A1, “SMALL MOLECULE INHIBITORS OF Id PROTEINS” (MEMORIAL SLOAN KETTERING CANCER CENTER, priority 2019, published 2022).

Sequence of E47 (P15923 1-651 isoform P15923-2): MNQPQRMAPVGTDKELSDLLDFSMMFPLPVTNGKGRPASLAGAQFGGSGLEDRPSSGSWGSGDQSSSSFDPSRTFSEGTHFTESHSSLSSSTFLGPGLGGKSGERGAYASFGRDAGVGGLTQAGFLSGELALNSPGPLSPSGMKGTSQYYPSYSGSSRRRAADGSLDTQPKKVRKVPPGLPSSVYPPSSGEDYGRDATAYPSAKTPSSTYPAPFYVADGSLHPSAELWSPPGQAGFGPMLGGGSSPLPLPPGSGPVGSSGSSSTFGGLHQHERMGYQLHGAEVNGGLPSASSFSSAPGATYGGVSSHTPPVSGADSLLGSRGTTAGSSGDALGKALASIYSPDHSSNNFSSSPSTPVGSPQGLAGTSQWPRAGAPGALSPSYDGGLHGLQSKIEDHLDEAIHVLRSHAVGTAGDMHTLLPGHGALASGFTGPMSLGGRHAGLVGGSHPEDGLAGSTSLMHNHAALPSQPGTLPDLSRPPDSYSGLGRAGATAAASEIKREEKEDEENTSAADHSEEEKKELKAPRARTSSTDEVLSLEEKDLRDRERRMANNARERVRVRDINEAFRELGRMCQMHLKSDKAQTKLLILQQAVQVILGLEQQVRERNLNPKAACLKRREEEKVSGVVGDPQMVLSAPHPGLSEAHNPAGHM

With `COc1ccccc1C(CCNCc1ccccc1)c1ccc(OC(C)C)cc1` (stereo not shown) [AGX-A, N-benzyl-3-(4-isopropoxyphenyl)-3-(2-methoxyphenyl)propan-1-anine], the tumor volume entry in the data set on PDX RomeP_PHCH_X_0008a (AGX-A 10 mg/kg i.p. QD×5 in DMSO, treatment discontinued at 9 days, vs gemcitabine 25 mg/kg QW) is “performs better than the SOC drug gemcitabine”. In addition, the animal weight result in the data set with PDX RomeP_PHCH_X_0008a (AGX-A in DMSO, Groups 3 and 4) is given as “weight loss was observed”.
On to `CCC(=O)N(CCC(c1ccc2c(c1)OCO2)c1ccccc1OC)Cc1ccccc1` (racemic) [AGX51, N-(3-(benzo[d][1,3]dioxol-5-yl)-3-(2-methoxyphenyl)propyl)-N-benzylpropionamide], for which, at E47, the “interaction with E47 (CD)” value is reported as “no evidence of an interaction”. Moreover, in the data set with ID1 mRNA, the “ID1 mRNA levels” value was “increase in ID1 mRNA levels”. Besides, the “Cyclin D1 levels” value in the data set on HUVEC (0-40 μM, 24 hours) is on record as “reduction in Cyclin D1 levels”. The cell viability result in the data set with HUVEC (20 μM) is “reduced cell viability”. The cell cycle entry in the data set on HUVEC (20 μM, 24 hours) is “G0/G1 growth arrest”.
